The text below walks through data of patent US10017507B2, “Diaza-benzofluoranthrene compounds” (HARBIN PHARMACEUTICAL GROUP CO., LTD. GENERAL …, priority 2015, dated 2018).

For this assay, the target named is T1, PDE1A (Homo sapiens, UniProt P54750).
T1 construct: purchased SignalChem
Nature of the assay: In vitro detection of phosphodiesterase (PDE): PDE1A enzyme activity by fluorescence polarization immunoassay. The assay is classed as biochemical. The settings on record: human-derived enzyme, cAMP or cGMP substrate; read-out: IC50s for PDE1. As to the method: Test 1: In Vitro Detection of Phosphodiesterase (PDE)
the enzyme activity of PDE1A was determined by detecting the production of AMP/GMP by fluorescence polarization immunoassay, wherein AlexaFluor 633 labeled AMP/GMP was used to replace AMP/GMP to bind with the antibody.
Reaction buffer: 10 mM Tris-HCl, pH 7.5, 5 mM magnesium chloride, 0.01% Brij 35, 1 mM DTT and 1% DMSO;
Enzyme substrate: […] cAMP or cGMP (Ca^2+-calmodulin acts as a cofactor of PDE1A)
Detection reagent: Transcreener® AMP2/GMP2 antibody; AMP2/GMP2 AlexaFluor 633 tracer.
Experimental Procedure and Method:
1. Human-derived enzyme (commercially available from SignalChem) to be tested and substrate were diluted with freshly prepared reaction buffer;
2. The enzyme solution (with a concentration of 3 pM) was added to the holes of the microplates;
3. A series of solutions of the compounds in 100% DMSO (with the desired concentrations) were added to the holes containing the enzyme solution by Echo550, and then the microplates were incubated for 10 minutes at room temperature;
4. The substrate solution was added to the holes containing the enzyme and compounds to start the reaction;
5. The microplates were incubated for 1 hour under room temperature and vibration;
6. The detection mixture (tracer and antibody in stop buffer) was added to stop the enzyme reaction, and the microplates were incubated for 90 minutes under vibration;
7. The equipment EnVision (PerkinElmer), Cy5 FP Ex FP 620, Em S-pol 688/P-pol 688, FP mirror D658fp/D688 was used to detect the reaction mixture, and Ex/Em 620/688 was used to detect the fluorescence polarization.
In the Excel table, the enzyme activity corresponding to the FP signal was found on the AMP/GMP standard curve by reference to the DMSO negative control, and then was converted to product concentration (nM). GraphPad Prism was used to analyze and calculate the IC50 values.
(Polarisation of emitted light reports the rotation of a fluorescent probe.)
Take `CC[C@@]12C=C(c3nc4c(o3)CCCC4)n3c4c(c5ccccc53)CCN(CCC1)[C@H]42` [Example 55, 2-((4^1S,13aS)-13a-ethyl-2,3,4^1,5,6,13a-hexahydro-1H-indolo[3,2,1-de]pyrido[3,2,1-ij][1,5]naphthyridin-12-yl)-4,5,6,7-tetrahydrobenzo[d]oxazole]: the IC50 is not above 1 µM. Consider `CC[C@@]12C=C(c3nsc(=O)[nH]3)n3c4c(c5ccccc53)CCN(CCC1)[C@H]42` [Example 19, 3-((4^1S,13aS)-13a-ethyl-2,3,4^1,5,6,13a-hexahydro-1H-indolo[3,2,1-de]pyrido[3,2,1-ij][1,5]naphthyridin-12-yl)-1,2,4-thiadiazol-5(4H)-one], for which the IC50 was more than 100 µM. For `CC[C@@]12C=C(c3nc(C)c(C#N)o3)n3c4c(c5ccccc53)CCN(CCC1)[C@H]42` [Example 63, 2-((4^1S,13aS)-13a-ethyl-2,3,4^1,5,6,13a-hexahydro-1H-indolo[3,2,1-de]pyrido[3,2,1-ij][1,5]naphthyridin-12-yl)-4-methyloxazole-5-carbonitrile] the value was not above 1 µM; for `CC[C@@]12C=C(c3nc(C(C)C)no3)n3c4c(c5ccccc53)CCN(CCC1)[C@H]42` [Example 34, 5-((4S,13aS)-13a-ethyl-2,3,4^1,5,6,13a-hexahydro-1H-indolo[3,2,1-de]pyrido[3,2,1-ij][1,5]naphthyridin-12-yl)-3-isopropyl-1,2,4-oxadiazole], 1 to 20 µM.

Consider `CC[C@@]12C=C(c3nc(-c4ccc(F)cc4)no3)n3c4c(c5ccccc53)CCN(CCC1)[C@H]42` [Example 32, 5-((4S,13aS)-13a-ethyl-2,3,4^1,5,6,13a-hexahydro-1H-indolo[3,2,1-de]pyrido[3,2,1-ij][1,5]naphthyridin-12-yl)-3-(4-fluorophenyl)-1,2,4-oxadiazole], for which the IC50 was more than 100 µM.

`CC[C@@]12C=C(c3nc(C)c(C)o3)n3c4c(c5c(S(=O)(=O)N(C)C)cccc53)CCN(CCC1)[C@H]42` [Example 74, (4^1S,13aS)-12-(4,5-dimethyloxazol-2-yl)-13a-ethyl-N,N-dimethyl-2,3,4^1,5,6,13a-hexahydro-1H-indolo[3,2,1-de]pyrido[3,2,1-ij][1,5]naphthyridin-7-sulfonamide]: the IC50 was 1 to 20 µM. `CC[C@@]12C=C(c3cncc(C)n3)n3c4c(c5ccccc53)CCN(CCC1)[C@H]42` [Example 10, (4^1S,13aS)-13a-ethyl-12-(6-methylpyrazin-2-yl)-2,3,4^1,5,6,13a-hexahydro-1H-indolo[3,2,1-de]pyrido[3,2,1-ij][1,5]naphthyridine]: the IC50 fell in the range of 1 to 20 µM. `CC[C@@]12C=C(c3nc(C)c(C)s3)n3c4c(c5ccccc53)CCN(CCC1)[C@H]42` [Example 40, 2-((4^1S,13aS)-13a-ethyl-2,3,4^1,5,6,13a-hexahydro-1H-indolo[3,2,1-de]pyrido[3,2,1-ij][1,5]naphthyridin-12-yl)-4,5-dimethylthiazole]: the IC50 lay within 1 to 20 µM.

Consider `CCc1noc(C2=C[C@]3(CC)CCCN4CCc5c(n2c2ccccc52)[C@@H]43)n1` [Example 33, 3-ethyl-5-((4^1S,13aS)-13a-ethyl-2,3,4^1,5,6,13a-hexahydro-1H-indolo[3,2,1-de]pyrido[3,2,1-ij][1,5]naphthyridin-12-yl)-1,2,4-oxadiazole], for which the IC50 lay within 1 to 20 µM. Consider `CC[C@@]12C=C(c3nc(C(F)F)no3)n3c4c(c5ccccc53)CCN(CCC1)[C@H]42` [Example 36, 3-Difluoromethyl-5-((4^1S,13aS)-13a-ethyl-2,3,4^1,5,6,13a-hexahydro-1H-indolo[3,2,1-de]pyrido[3,2,1-ij][1,5]naphthyridin-12-yl)-1,2,4-oxadiazole], for which the IC50 was 20 to 100 µM. In the case of `CC[C@@]12C=C(c3nc(C)ns3)n3c4c(c5ccccc53)CCN(CCC1)[C@H]42` [Example 39, 5-((4^1S,13aS)-13a-ethyl-2,3,4^1,5,6,13a-hexahydro-1H-indolo[3,2,1-de]pyrido[3,2,1-ij][1,5]naphthyridin-12-yl)-3-methyl-1,2,4-thiadiazole], the IC50 lay within 1 to 20 µM. Consider `CC[C@@]12C=C(c3cnco3)n3c4c(c5ccccc53)CCN(CCC1)[C@H]42` [Example 4, 5-((4^1S,13aS)-13a-ethyl-2,3,4^1,5,6,13a-hexahydro-1H-indolo[3,2,1-de]pyrido[3,2,1-ij][1,5]naphthyridin-12-yl)oxazole], for which the IC50 was 20 to 100 µM.

For the compound `CC[C@@]12C=C(c3ccc(C)nn3)n3c4c(c5ccccc53)CCN(CCC1)[C@H]42` [Example 9, (4^1S,13aS)-13a-ethyl-12-(6-methylpyridazin-3-yl)-2,3,4^1,5,6,13a-hexahydro-1H-indolo[3,2,1-de]pyrido[3,2,1-ij][1,5]naphthyridine], the IC50 was 1 to 20 µM. Consider `CC[C@@]12C=C(c3nc(C)c(C(=O)OC)o3)n3c4c(c5ccccc53)CCN(CCC1)[C@H]42` [Example 59, Methyl-2-((4^1S,13aS)-13a-ethyl-2,3,4^1,5,6,13a-hexahydro-1H-indolo[3,2,1-de]pyrido[3,2,1-ij][1,5]naphthyridin-12-yl)-4-methyloxazole-5-carbonate], for which the IC50 was not above 1 µM. Take `CC[C@@]12C=C(c3nc(C)c(C(C)C)o3)n3c4c(c5ccccc53)CCN(CCC1)[C@H]42` [Example 54, 2-((4^1S,13aS)-13a-ethyl-2,3,4^1,5,6,13a-hexahydro-1H-indolo[3,2,1-de]pyrido[3,2,1-ij][1,5]naphthyridin-12-yl)-5-isopropyl-4-methyloxazole]: the IC50 was 1 to 20 µM.

Turning to “(4^1S,13aS)-13a-ethyl-N-methyl-12-(3-methyl-1,2,4-oxadiazol-5-yl)-2,3,4^1,5,6,13a-hexahydro-1H-indolo[3,2,1-de]pyrido[3,2,1-ij][1,5]naphthyridin-8-sulfonamide [Example 79]”, the IC50 was in the range of 1 to 20 µM. For the compound `CC[C@@]12C=C(c3nnco3)n3c4c(c5ccccc53)CCN(CCC1)[C@H]42` [Example 15, 2-((4^1S,13aS)-13a-ethyl-2,3,4^1,5,6,13a-hexahydro-1H-indolo[3,2,1-de]pyrido[3,2,1-ij][1,5]naphthyridin-12-yl)-1,3,4-oxadiazole], the IC50 was more than 100 µM.

On to `CC[C@@]12C=C(c3cccc(C)n3)n3c4c(c5ccccc53)CCN(CCC1)[C@H]42` [Example 12, (4^1S,13aS)-13a-ethyl-12-(6-methylpyridin-2-yl)-2,3,4^1,5,6,13a-hexahydro-1H-indolo[3,2,1-de]pyrido[3,2,1-ij][1,5]naphthyridine], for which the IC50 lay in the range of 1 to 20 µM. On to `CC[C@@]12C=C(c3noc(C(F)(F)F)n3)n3c4c(c5ccccc53)CCN(CCC1)[C@H]42` [Example 21, 3-((4^1S,13aS)-13a-ethyl-2,3,4^1,5,6,13a-hexahydro-1H-indolo[3,2,1-de]pyrido[3,2,1-ij][1,5]naphthyridin-12-yl)-5-trifluoromethyl-1,2,4-oxadiazole], for which the IC50 was more than 100 µM. On to `CC[C@@]12C=C(c3noc(-c4ccncc4)n3)n3c4c(c5ccccc53)CCN(CCC1)[C@H]42` [Example 24, 3-((4^1S,13aS)-13a-ethyl-2,3,4^1,5,6,13a-hexahydro-1H-indolo[3,2,1-de]pyrido[3,2,1-ij][1,5]naphthyridin-12-yl)-5-(pyridin-4-yl)-1,2,4-oxadiazole], for which the IC50 is 20 to 100 µM. Take `CC[C@@]12C=C(c3nc(C)no3)n3c4c(c5cc(S(=O)(=O)N(C)C)ccc53)CCN(CCC1)[C@H]42` [Example 80, (4^1S,13aS)-13a-ethyl-N,N-dimethyl-12-(3-methyl-1,2,4-oxadiazol-5-yl)-2,3,4^1,5,6,13a-hexahydro-1H-indolo[3,2,1-de]pyrido[3,2,1-ij][1,5]naphthyridin-8-sulfonamide]: the IC50 was 20 to 100 µM. In the case of `CC[C@@]12C=C(c3nc(C)c(C)o3)n3c4c(c5ccc(S(=O)(=O)NC)cc53)CCN(CCC1)[C@H]42` [Example 68, (4^1S,13aS)-12-(4,5-dimethyloxazol-2-yl)-13a-ethyl-N-methyl-2,3,4^1,5,6,13a-hexahydro-1H-indolo[3,2,1-de]pyrido[3,2,1-ij][1,5]naphthyridin-9-sulfonamide], the IC50 is not above 1 µM. `CCOC(=O)/C=C/C1=C[C@]2(CC)CCCN3CCc4c(n1c1ccccc41)[C@@H]32` [Example 6, (E)-ethyl-3-((4^1S,13aS)-13a-ethyl-2,3,4^1,5,6,13a-hexahydro-1H-indolo[3,2,1-de]pyrido[3,2,1-ij][1,5]naphthyridin-12-yl)acrylate]: the IC50 fell in the range of 1 to 20 µM. Consider “(4^1S,13aS)-13a-ethyl-12-(1-methyl-1H-pyrazol-3-yl)-2,3,4^1,5,6,13a-hexahydro-1H-indolo[3,2,1-de]pyrido[3,2,1-ij][1,5]naphthyridine, and (4^1S,13aS)-13a-ethyl-12-(1-methyl-1H-pyrazol-5-yl)-2,3,4^1,5,6,13a-hexahydro-1H-indolo[3,2,1-de]pyrido[3,2,1-ij][1,5]naphthyridine [Example 46]”, for which the IC50 fell in the range of 20 to 100 µM.
